From article PMC8463443 (Acta Pharmaceutica Sinica. B, 2021)
Where no end group is shown, it is not given here.

Key:
[1] = tested on: monkey kidney cell line Vero E6; experiment: Cell viability, Vero E6; type: cell-based; settings: monkey kidney cell line Vero E6 (Fig. S6)
[2] = Water solubility of peptide; type: physicochemical; settings: in words, method not given

Question: For KLTFLEYWAQLMQK [M3-2K], which “effect on viability of Vero E6” value [1] is on record?
Answer: neither PMI-2K nor M3-2K had any effect on the viability

Question: And the water solubility [2]?
Answer: improved peptide solubility
